Data as given in ChEMBL document CHEMBL3526080, “In vitro inhibition of the bile salt export pump correlates with risk of cholestatic drug-induced liver injury in humans” (Drug Metab Dispos, 2012).

How the values were obtained:
Bile salt export pump [1] = molecular target: Bile salt export pump (Rattus norvegicus, UniProt O70127); experiment: Inhibition of Sprague-Dawley rat Bsep expressed in plasma membrane vesicles of Sf21 cells assessed as inhibition of ATP-dependent [3H]taurocholate uptake; type: cell membranes
Bile salt export pump [2] = molecular target: Bile salt export pump (Homo sapiens, UniProt O95342); experiment: Inhibition of human BSEP expressed in plasma membrane vesicles of Sf21 cells assessed as inhibition of ATP-dependent [3H]taurocholate uptake; type: cell membranes
Chain of Bile salt export pump (Homo sapiens, UniProt O95342) (O95342 whole entry): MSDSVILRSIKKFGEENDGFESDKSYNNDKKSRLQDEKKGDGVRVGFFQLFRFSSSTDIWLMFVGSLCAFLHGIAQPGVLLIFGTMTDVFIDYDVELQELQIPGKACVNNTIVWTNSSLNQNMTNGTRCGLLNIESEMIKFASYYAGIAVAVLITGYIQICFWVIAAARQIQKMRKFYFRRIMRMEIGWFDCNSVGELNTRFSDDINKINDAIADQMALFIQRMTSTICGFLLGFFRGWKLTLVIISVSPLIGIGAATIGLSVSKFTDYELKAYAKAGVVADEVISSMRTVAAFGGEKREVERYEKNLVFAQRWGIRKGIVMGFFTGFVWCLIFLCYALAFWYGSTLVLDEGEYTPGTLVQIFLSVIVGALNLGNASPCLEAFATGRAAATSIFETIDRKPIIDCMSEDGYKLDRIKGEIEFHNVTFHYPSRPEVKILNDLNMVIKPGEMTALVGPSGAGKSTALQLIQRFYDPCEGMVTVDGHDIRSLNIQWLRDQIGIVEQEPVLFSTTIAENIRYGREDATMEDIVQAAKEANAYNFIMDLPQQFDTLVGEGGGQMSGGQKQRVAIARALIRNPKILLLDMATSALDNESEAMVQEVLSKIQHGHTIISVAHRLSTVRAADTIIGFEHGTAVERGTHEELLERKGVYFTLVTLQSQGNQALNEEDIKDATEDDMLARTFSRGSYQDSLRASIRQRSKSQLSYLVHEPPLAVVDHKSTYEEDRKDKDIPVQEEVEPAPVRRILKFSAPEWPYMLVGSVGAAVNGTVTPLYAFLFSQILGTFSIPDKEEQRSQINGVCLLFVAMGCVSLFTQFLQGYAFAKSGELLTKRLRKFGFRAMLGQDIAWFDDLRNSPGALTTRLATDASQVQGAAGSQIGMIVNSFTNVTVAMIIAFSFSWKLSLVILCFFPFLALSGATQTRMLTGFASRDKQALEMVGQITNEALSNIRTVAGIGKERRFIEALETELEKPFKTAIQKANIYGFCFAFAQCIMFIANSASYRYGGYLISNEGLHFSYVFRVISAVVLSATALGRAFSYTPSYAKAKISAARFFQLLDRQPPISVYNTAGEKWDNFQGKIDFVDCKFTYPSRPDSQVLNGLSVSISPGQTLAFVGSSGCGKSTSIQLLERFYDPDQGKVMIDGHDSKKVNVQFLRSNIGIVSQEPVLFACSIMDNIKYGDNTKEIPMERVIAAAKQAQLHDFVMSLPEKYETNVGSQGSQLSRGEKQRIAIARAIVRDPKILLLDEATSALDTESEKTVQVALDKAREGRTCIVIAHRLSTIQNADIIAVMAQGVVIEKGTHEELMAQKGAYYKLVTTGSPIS

Chain of Bile salt export pump (Rattus norvegicus, UniProt O70127) (O70127 whole entry): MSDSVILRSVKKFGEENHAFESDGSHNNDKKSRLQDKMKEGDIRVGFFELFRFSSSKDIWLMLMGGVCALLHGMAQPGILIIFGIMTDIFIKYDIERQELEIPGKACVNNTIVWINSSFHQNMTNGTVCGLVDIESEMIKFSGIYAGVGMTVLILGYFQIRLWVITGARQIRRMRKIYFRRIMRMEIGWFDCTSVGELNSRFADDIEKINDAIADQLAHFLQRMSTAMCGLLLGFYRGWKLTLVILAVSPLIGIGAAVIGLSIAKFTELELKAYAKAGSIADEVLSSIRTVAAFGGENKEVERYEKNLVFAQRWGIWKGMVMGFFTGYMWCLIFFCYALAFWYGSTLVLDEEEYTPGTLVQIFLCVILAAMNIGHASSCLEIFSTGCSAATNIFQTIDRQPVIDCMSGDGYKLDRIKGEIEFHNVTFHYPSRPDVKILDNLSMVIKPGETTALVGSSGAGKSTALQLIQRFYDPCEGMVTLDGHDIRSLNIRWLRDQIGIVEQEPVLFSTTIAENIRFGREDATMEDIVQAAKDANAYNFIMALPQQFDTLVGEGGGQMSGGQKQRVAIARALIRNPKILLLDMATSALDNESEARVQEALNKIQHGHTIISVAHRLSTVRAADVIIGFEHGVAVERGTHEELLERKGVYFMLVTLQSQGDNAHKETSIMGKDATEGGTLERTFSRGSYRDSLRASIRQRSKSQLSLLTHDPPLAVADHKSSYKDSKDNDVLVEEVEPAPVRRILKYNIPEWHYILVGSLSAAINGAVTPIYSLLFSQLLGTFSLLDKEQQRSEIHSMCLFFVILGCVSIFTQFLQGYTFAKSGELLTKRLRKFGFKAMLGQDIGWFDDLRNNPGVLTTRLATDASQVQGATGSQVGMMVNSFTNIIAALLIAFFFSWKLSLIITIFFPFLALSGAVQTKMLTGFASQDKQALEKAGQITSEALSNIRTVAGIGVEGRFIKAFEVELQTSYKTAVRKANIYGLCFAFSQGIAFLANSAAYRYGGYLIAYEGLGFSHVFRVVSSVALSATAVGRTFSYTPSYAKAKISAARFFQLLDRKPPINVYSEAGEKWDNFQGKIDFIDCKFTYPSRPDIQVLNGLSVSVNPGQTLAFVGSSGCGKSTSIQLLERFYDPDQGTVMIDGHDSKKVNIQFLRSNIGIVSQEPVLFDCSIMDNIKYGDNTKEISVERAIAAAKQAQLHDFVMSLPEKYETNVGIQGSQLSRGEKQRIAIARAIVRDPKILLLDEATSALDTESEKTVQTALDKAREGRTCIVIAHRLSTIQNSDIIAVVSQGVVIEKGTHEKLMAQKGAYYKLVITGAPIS

**Q.** `NC(=O)N1c2ccccc2C=Cc2ccccc21` [CARBAMAZEPINE] was tested. Which IC50 (Bile salt export pump [1]) did it give?
**A.** > 1000 µM

**Q.** What about the IC50 (Bile salt export pump [2]) of the same compound?
**A.** > 1000 µM

**Q.** What does the source list for `CCOC(=O)c1ncn2c1CN(C)C(=O)c1cc(F)ccc1-2` [FLUMAZENIL]?
**A.** IC50 (Bile salt export pump [1]): > 1000 µM; IC50 (Bile salt export pump [2]): > 1000 µM

**Q.** `CC(=O)N1CCN(c2ccc(OCC3COC(Cn4ccnc4)(c4ccc(Cl)cc4Cl)O3)cc2)CC1` (centres undefined) [KETOCONAZOLE] was tested. Which IC50 (Bile salt export pump [1]) did it give?
**A.** 15.6 µM

**Q.** `Cc1onc(-c2c(Cl)cccc2Cl)c1C(=O)N[C@@H]1C(=O)N2[C@@H]1SC(C)(C)[C@@H]2C(=O)O` [DICLOXACILLIN] was tested. Which IC50 (Bile salt export pump [1]) did it give?
**A.** 111 µM

**Q.** And the IC50 (Bile salt export pump [2])?
**A.** 69.7 µM

**Q.** `CC(=O)Nc1ccc(OCC(O)CNC(C)C)cc1` (centres undefined) [PRACTOLOL] was tested. Which IC50 (Bile salt export pump [1]) did it give?
**A.** > 1000 µM

**Q.** And the IC50 (Bile salt export pump [2])?
**A.** > 1000 µM

**Q.** Which IC50 (Bile salt export pump [1]) does the source give for `COc1ccc(C(=O)NCc2cccnc2)cc1C(=O)NCc1cccnc1` [PICOTAMIDE] here?
**A.** 637 µM

**Q.** And the IC50 (Bile salt export pump [2])?
**A.** 441 µM

**Q.** What does the source list for `COc1ccccc1Oc1c(NS(=O)(=O)c2ccc(C(C)(C)C)cc2)nc(-c2ncccn2)nc1OCCO` [BOSENTAN]?
**A.** IC50 (Bile salt export pump [1]): 30.6 µM; IC50 (Bile salt export pump [2]): 38.1 µM

**Q.** For `COc1cc(C)c(/C=C/C(C)=C/C=C/C(C)=C/C(=O)O)c(C)c1C` [ACITRETIN], which IC50 (Bile salt export pump [1]) is on record?
**A.** 19.7 µM

**Q.** And the IC50 (Bile salt export pump [2])?
**A.** 18.2 µM

**Q.** `O=C(O)c1cc(=O)c2c(OCC(O)COc3cccc4oc(C(=O)O)cc(=O)c34)cccc2o1` [CROMOLYN] was tested. Which IC50 (Bile salt export pump [1]) did it give?
**A.** > 1000 µM

**Q.** What about the IC50 (Bile salt export pump [2]) of the same compound?
**A.** > 1000 µM

**Q.** For `COc1cc2c(cc1OC)C(=O)C(CC1CCN(Cc3ccccc3)CC1)C2` (centres undefined) [DONEPEZIL], which IC50 (Bile salt export pump [1]) is on record?
**A.** 519 µM

**Q.** What about the IC50 (Bile salt export pump [2]) of the same compound?
**A.** 206 µM

**Q.** Which results are given for `CC(C)(Oc1ccc(CCNC(=O)c2ccc(Cl)cc2)cc1)C(=O)O` [BEZAFIBRATE]?
**A.** IC50 (Bile salt export pump [1]): 391 µM; IC50 (Bile salt export pump [2]): 232 µM

**Q.** `C[C@@H]1C[C@H]2[C@@H]3CCC4=CC(=O)C=C[C@]4(C)[C@@]3(F)[C@@H](O)C[C@]2(C)[C@@]1(O)C(=O)CO` [DEXAMETHASONE] was tested. Which IC50 (Bile salt export pump [1]) did it give?
**A.** 232 µM

**Q.** What about the IC50 (Bile salt export pump [2]) of the same compound?
**A.** 137 µM

**Q.** Which IC50 (Bile salt export pump [1]) does the source give for `NC(=O)OCC(COC(N)=O)c1ccccc1` [FELBAMATE] here?
**A.** > 1000 µM

**Q.** And the IC50 (Bile salt export pump [2])?
**A.** > 1000 µM

**Q.** `COC(=O)C1=C(C)NC(C)=C(C(=O)OC)C1c1ccccc1[N+](=O)[O-]` [NIFEDIPINE] was tested. Which IC50 (Bile salt export pump [1]) did it give?
**A.** 45.4 µM

**Q.** And the IC50 (Bile salt export pump [2])?
**A.** 30.7 µM

**Q.** How did the IC50 (Bile salt export pump [1]) turn out when `Cn1cnc([N+](=O)[O-])c1Sc1ncnc2nc[nH]c12` [AZATHIOPRINE] was run?
**A.** > 1000 µM

**Q.** `O=C1CN(/N=C/c2ccc([N+](=O)[O-])o2)C(=O)N1` [NITROFURANTOIN] was tested. Which IC50 (Bile salt export pump [1]) did it give?
**A.** > 1000 µM

**Q.** With `O=C(OCC(O)CO)c1ccccc1Nc1ccnc2cc(Cl)ccc12` (centres undefined) [GLAFENINE] as the compound, how does the IC50 (Bile salt export pump [1]) read?
**A.** 32.2 µM

**Q.** And the IC50 (Bile salt export pump [2])?
**A.** 22.3 µM

**Q.** How did the IC50 (Bile salt export pump [1]) turn out when `CCCN(CCC)S(=O)(=O)c1ccc(C(=O)O)cc1` [PROBENECID] was run?
**A.** 510 µM

**Q.** What about the IC50 (Bile salt export pump [2]) of the same compound?
**A.** 565 µM

**Q.** How did the IC50 (Bile salt export pump [1]) turn out when `CC1=C(CC(=O)O)c2cc(F)ccc2/C1=C\c1ccc([S+](C)[O-])cc1` (centres undefined) was run?
**A.** 87.5 µM

**Q.** What about the IC50 (Bile salt export pump [2]) of the same compound?
**A.** 226 µM

**Q.** Which results are given for `CC(=O)Nc1ccc(O)cc1` [ACETAMINOPHEN]?
**A.** IC50 (Bile salt export pump [1]): > 1000 µM; IC50 (Bile salt export pump [2]): > 1000 µM

**Q.** `CCCC(CCC)C(=O)O` [VALPROIC ACID] was tested. Which IC50 (Bile salt export pump [1]) did it give?
**A.** > 1000 µM

**Q.** What about the IC50 (Bile salt export pump [2]) of the same compound?
**A.** > 1000 µM

**Q.** With `C#CCN(C)Cc1ccccc1` [PARGYLINE] as the compound, how does the IC50 (Bile salt export pump [1]) read?
**A.** > 1000 µM

**Q.** And the IC50 (Bile salt export pump [2])?
**A.** > 1000 µM

**Q.** What does the source list for `N[C@@H]1CON=C1O` [CYCLOSERINE]?
**A.** IC50 (Bile salt export pump [1]): > 1000 µM; IC50 (Bile salt export pump [2]): > 1000 µM

**Q.** What does the source list for `C[C@H]1COc2c(N3CCN(C)CC3)c(F)cc3c(=O)c(C(=O)O)cn1c23` [LEVOFLOXACIN]?
**A.** IC50 (Bile salt export pump [1]): > 1000 µM; IC50 (Bile salt export pump [2]): > 1000 µM

**Q.** What does the source list for `CC(C)NCC(O)c1ccc(O)c(O)c1` (centres undefined) [ISOPROTERENOL]?
**A.** IC50 (Bile salt export pump [1]): > 1000 µM; IC50 (Bile salt export pump [2]): > 1000 µM

**Q.** What does the source list for `CCc1ccc(CCOc2ccc(CC3SC(=O)NC3=O)cc2)nc1` (centres undefined) [PIOGLITAZONE]?
**A.** IC50 (Bile salt export pump [1]): 2 µM; IC50 (Bile salt export pump [2]): 0.3 µM

**Q.** Which IC50 (Bile salt export pump [1]) does the source give for `[H]/N=C(/N)N[C@H]1[C@H](O)[C@@H](O)[C@H](O[C@@H]2O[C@@H](C)[C@](O)(C=O)[C@H]2O[C@@H]2O[C@@H](CO)[C@H](O)[C@@H](O)[C@@H]2NC)[C@@H](N/C(N)=N\[H])[C@@H]1O` [STREPTOMYCIN] here?
**A.** > 1000 µM

**Q.** And the IC50 (Bile salt export pump [2])?
**A.** > 1000 µM

**Q.** For `O=C(O)c1ccccc1O` [SALICYLIC ACID], which IC50 (Bile salt export pump [1]) is on record?
**A.** > 1000 µM

**Q.** What about the IC50 (Bile salt export pump [2]) of the same compound?
**A.** > 1000 µM

**Q.** Which IC50 (Bile salt export pump [1]) does the source give for `O=C(O)c1cc(-c2ccccc2)nc2ccccc12` [CINCHOPHEN] here?
**A.** 296 µM

**Q.** What about the IC50 (Bile salt export pump [2]) of the same compound?
**A.** 695 µM

**Q.** Which results are given for `CCN1CCCC1CNC(=O)c1cc(S(N)(=O)=O)ccc1OC` (centres undefined) [SULPIRIDE]?
**A.** IC50 (Bile salt export pump [1]): > 1000 µM; IC50 (Bile salt export pump [2]): > 1000 µM

**Q.** For `Cc1ncc(CO)c(CO)c1O` [PYRIDOXINE], which IC50 (Bile salt export pump [1]) is on record?
**A.** > 1000 µM

**Q.** What about the IC50 (Bile salt export pump [2]) of the same compound?
**A.** > 1000 µM

**Q.** How did the IC50 (Bile salt export pump [1]) turn out when `CC(C)(Oc1ccc(C2CC2(Cl)Cl)cc1)C(=O)O` (centres undefined) [CIPROFIBRATE] was run?
**A.** 190 µM

**Q.** And the IC50 (Bile salt export pump [2])?
**A.** 573 µM

**Q.** Which results are given for `NCCc1ccc(O)c(O)c1` [DOPAMINE]?
**A.** IC50 (Bile salt export pump [1]): > 1000 µM; IC50 (Bile salt export pump [2]): > 1000 µM

**Q.** Which results are given for `Nc1nc2c(ncn2COCCO)c(=O)[nH]1` [ACYCLOVIR]?
**A.** IC50 (Bile salt export pump [1]): > 1000 µM; IC50 (Bile salt export pump [2]): > 1000 µM

**Q.** `Cc1onc(-c2ccccc2Cl)c1C(=O)N[C@@H]1C(=O)N2[C@@H]1SC(C)(C)[C@@H]2C(=O)O` [CLOXACILLIN] was tested. Which IC50 (Bile salt export pump [1]) did it give?
**A.** 377 µM

**Q.** What about the IC50 (Bile salt export pump [2]) of the same compound?
**A.** 220 µM

**Q.** Which IC50 (Bile salt export pump [1]) does the source give for `Cc1c(C)c2c(c(C)c1O)CCC(C)(COc1ccc(CC3SC(=O)NC3=O)cc1)O2` (centres undefined) [TROGLITAZONE] here?
**A.** 10.6 µM

**Q.** And the IC50 (Bile salt export pump [2])?
**A.** 2.7 µM
